Source: US11833228B2, “Fluorinated beta-hydroxybutyric acids for PET imaging” (The Governors of the University of Alberta, priority 2019, dated 2023)

How the values were obtained:
[1] = tested on: MDA-MB231 breast cancer xenografts; experiment: Dynamic PET imaging of radiotracer uptake in MDA-MB231 tumor-bearing mice; format: in vivo, NIH-III nude mice; conditions: for SUV mean, Harderian glands / SUV mean, brain / SUV mean, heart / SUV mean, joint / SUV mean, kidneys / SUV mean, liver / SUV mean, muscle / SUV mean, spine / SUV mean, tumor: 60 min
Protocol: (§1) Normal BALB/c mice or breast cancer xenografts were used for the PET imaging experiments. Human MDA-MB231 cells (3-5×10^6 cells in 100 μL PBS) were injected subcutaneously into 8-12 weeks old anesthetized female NIH-III nude mice (Charles River, Saint-Constant, QC, Canada). Tumors were grown for 3-4 weeks, reaching sizes of 300-500 mm^3. For fasting experiments, the food was removed from the mice for 24 h prior to the PET experiment.
(§2) Mice were anesthetized with isoflurane (40% O2/60% N2) and their body temperature was kept constant at 37° C. They were positioned and immobilized in prone position into the centre of the field of view of an INVEON® PET scanner (Siemens Preclinical Solutions, Knoxville, TN, USA). A transmission scan for attenuation correction was not acquired. Radioactivity present in the injection solution (0.5 mL insulin syringe) was determined using a dose calibrator (Atomlab™ 300, Biodex Medical Systems, New York, NY, USA). After the emission scan was started, radioactivity (4-8 MBq in 100-150 μL saline) was injected with a delay of ˜15 s through a tail vein catheter. Dynamic PET data acquisition was performed in 3D list mode for 60 min. Dynamic list mode data were sorted into sinograms with 54 time frames (10×2 s, 8×5 s, 6×10 s, 6×20 s, 8×60 s, 10×120 s, 5×300 s). Frames were reconstructed using the maximum a posteriori (MAP) reconstruction mode. No correction for partial volume effects was performed. Image files were further processed using the ROVER v2.0.51 software (ABX GmbH, Radeberg, Germany). Masks defining 3D ROI were set and defined by 50% thresholding. Mean standardized uptake values [SUV=(activity/mL tissue)/(injected activity/body weight) were calculated for each ROI. Time-activity curves (TAC) were generated from the dynamic scans using GraphPad® Prism 5.04 (GraphPad Software, La Jolla, CA, USA).
(§3) All semi-quantified PET data are expressed as means±SEM. Where applicable, statistical differences were tested by unpaired Student's t test and were considered significant for p<0.05 (*), p<0.01 (**) and p<0.001 (***).

[2] = tested on: subcutaneous MCF-7 breast cancer tumor; experiment: Dynamic PET imaging of radiotracer uptake in MCF-7 tumor-bearing mice; format: in vivo
Protocol: as §2, §3

[3] = tested on: normal BALB/c mice; experiment: Dynamic PET scans of normal BALB/c mice; format: in vivo; conditions: dynamic PET over 30 minutes; for clearance pathway: FIG. 4A; for heart and brain uptake and retention: FIG. 4A-C
Protocol: as §1
as §2, with “Dynamic PET data acquisition was performed in 3D list mode for 60 min.” left out
as §3

With `O=C(O)C[C@@H](O)C[18F]` [(R)[^18F]FBHB, (R)-[^18F]γ-fluoro-β-hydroxybutyric acid] the “SUV mean, Harderian glands” value ([1]; n=3, 24 h fasted) was 1.39 ± 0.11 ^n.s, the “SUV mean, brain” value ([1]; n=3, 24 h fasted) was 1.02 ± 0.05 ^n.s and the “SUV mean, heart” value ([1]; n=3, 24 h fasted) was 0.95 ± 0.03 ^n.s. For the same compound, the “SUV mean, joint” value ([1]; n=3, 24 h fasted) was 1.58 ± 0.02 ^p=0.0501, the “SUV mean, kidneys” value ([1]; n=3, 24 h fasted) was 2.36 ± 0.25 ^n.s and the “SUV mean, liver” value ([1]; n=3, 24 h fasted) was 0.74 ± 0.02 ^n.s. For the same compound, the “SUV mean, muscle” value ([1]; n=3, 24 h fasted) was 0.54 ± 0.02, the “SUV mean, spine” value ([1]; n=3, 24 h fasted) was 1.56 ± 0.03 * and the “SUV mean, tumor” value ([1]; n=3, 24 h fasted) was 0.89 ± 0.05 *. The “SUV mean, Harderian glands” value ([1]; n=3, fed (unfasted)) was 1.56 ± 0.13, the “SUV mean, brain” value ([1]; n=3, fed (unfasted)) was 0.91 ± 0.07 and the “SUV mean, heart” value ([1]; n=3, fed (unfasted)) was 0.84 ± 0.09. The “SUV mean, joint” value ([1]; n=3, fed (unfasted)) was 1.30 ± 0.10, the “SUV mean, kidneys” value ([1]; n=3, fed (unfasted)) was 1.96 ± 0.17 and the “SUV mean, liver” value ([1]; n=3, fed (unfasted)) was 0.66 ± 0.08. For the same compound, the “SUV mean, muscle” value ([1]; n=3, fed (unfasted)) was 0.50 ± 0.05, the “SUV mean, spine” value ([1]; n=3, fed (unfasted)) was 1.39 ± 0.03 and the “SUV mean, tumor” value ([1]; n=3, fed (unfasted)) was 0.77 ± 0.06. The “MDA-MB-231 tumor and muscle uptake, 24 hour fast versus fed state (time activity curves)” value ([1]; FIGS. 9B-C) was “statistically significant increase in uptake”, the “tumor retention in mice fed a glucose-free, fructose-based diet (SUV ratio versus time)” value ([1]; MDA-MB231 tumors, FIG. 7) was “higher” and the “retention in tumor tissue compared to muscle tissue” value ([1]; subcutaneous MDA-MB231 tumor, FIG. 3A, 3C) was “higher retention in tumor tissue as compared to muscle tissue”. For the same compound, the “brain uptake after 24 hour fast versus fed (SUV ratio versus time)” value ([2]; MCF7 tumor-bearing mice, FIG. 6A) was “increased”, the “heart uptake after 24 hour fast versus fed (SUV ratio versus time)” value ([2]; MCF7 tumor-bearing mice, FIG. 6B) was “increased” and the “tumor retention after 24 hour fast versus fed (SUV ratio versus time)” value ([2]; MCF7 tumor-bearing mice, FIG. 6C) was “better tumor retention”. For the same compound, the “retention in tumor tissue compared to muscle tissue” value ([2]; subcutaneous MCF-7 tumor, FIG. 3A-B) was “higher retention in tumor tissue as compared to muscle tissue”, the clearance pathway [3] was “renal clearance pathway” and the “heart and brain uptake and retention” value [3] was “moderate heart and brain uptake and retention”.

With `O=C(O)C[C@H](O)C[18F]` [(S)[^18F]FBHB, (S)-[^18F]γ-fluoro-β-hydroxybutyric acid] the “SUV mean, Harderian glands” value ([1]; n=3, 24 h fasted) was 1.15 ± 0.02, the “SUV mean, brain” value ([1]; n=3, 24 h fasted) was 1.17 ± 0.02 * and the “SUV mean, heart” value ([1]; n=3, 24 h fasted) was 1.05 ± 0.02 *. For the same compound, the “SUV mean, joint” value ([1]; n=3, 24 h fasted) was 1.07 ± 0.08, the “SUV mean, kidneys” value ([1]; n=3, 24 h fasted) was 1.38 ± 0.16 and the “SUV mean, liver” value ([1]; n=3, 24 h fasted) was 0.80 ± 0.02 *. The “SUV mean, muscle” value ([1]; n=3, 24 h fasted) was 0.60 ± 0.03, the “SUV mean, spine” value ([1]; n=3, 24 h fasted) was 1.13 ± 0.04 and the “SUV mean, tumor” value ([1]; n=3, 24 h fasted) was 0.95 ± 0.04. For the same compound, the “SUV mean, Harderian glands” value ([1]; n=3, fed (unfasted)) was 1.10 ± 0.01, the “SUV mean, brain” value ([1]; n=3, fed (unfasted)) was 1.08 ± 0.02 and the “SUV mean, heart” value ([1]; n=3, fed (unfasted)) was 0.96 ± 0.01. For the same compound, the “SUV mean, joint” value ([1]; n=3, fed (unfasted)) was 1.10 ± 0.08, the “SUV mean, kidneys” value ([1]; n=3, fed (unfasted)) was 1.44 ± 0.05 and the “SUV mean, liver” value ([1]; n=3, fed (unfasted)) was 0.74 ± 0.01. For the same compound, the “SUV mean, muscle” value ([1]; n=3, fed (unfasted)) was 0.57 ± 0.01, the “SUV mean, spine” value ([1]; n=3, fed (unfasted)) was 1.10 ± 0.07 and the “SUV mean, tumor” value ([1]; n=3, fed (unfasted)) was 0.91 ± 0.02. For the same compound, the “visibility of xenograft tumors by PET imaging” value ([1]; intravenous administration, preliminary studies, FIGS. 8A-B and 9A-C) was “xenograft tumors were visible by PET imaging”, the “tumor uptake compared with muscle uptake, comparison of isomers” value ([1]; subcutaneous MDA-MB-231 xenograft, FIG. 8B) was “higher uptake” and the clearance pathway [3] was “renal clearance pathway”. For the same compound, the “brain retention, comparison of isomers” value ([3]; FIG. 4A lower panel) was “brain retention highest for the S isomer” and the “heart and brain uptake and retention” value [3] was “moderate heart and brain uptake and retention”.
